According to patent US20230365582A1, “NOVEL COMPOUNDS HAVING INHIBITORY ACTIVITY ON PROSTAGLANDIN E2 RECEPTOR AND USES THEREOF” (KANAPH THERAPEUTICS INC., priority 2020, published 2023):

Assays:
hEP2 = target: T1, hEP2 (Homo sapiens, UniProt P43116); experiment: hEP2 cAMP assay; format: cell-based; conditions: HEK293 cells overexpressing hEP2; PGE2 agonist 400 pM; graded per Table 21; read-out: IC50 (nM) EP2 cAMP
T1 construct: expressed in transfected cells; host or cells: HEK293
Experimental: (§1) HEK293 cells overexpressing hEP2 were cultured in growth medium (GM: MEM (Gibco™, 11095080)/10% HI FBS (Gibco™, 10082147)/1% penicillin/streptomycin). Before the experiment, the growth medium was removed, and starvation medium (HBSS (Gibco™, 14025076)/10% GM) was added. Thereafter, the cells were incubated for 4 hours. The HEK293 cells harboring hEP2 were detached from the culture dish with a non-enzymatic cell dissociation buffer (Gibco™, 15040066). The cells were resuspended in assay buffer (AB: HBSS, 0.1% BSA stabilizer, 0.5 mM IBMX, 5 mM HEPES).
(§2) 1,000 cells in 5 μL of AB were seeded per well in a 384 well plate (Corning™, 3570), and stock solutions of test compounds were prepared at a concentration of 1 mM in DMSO and serially diluted in DMSO to the concentration required for the inhibition dose response curve (test concentration range of 10 μM-0.001 nM). PGE2 (Sigma, P0409, stock solution: 1 μM) was used as an agonist at a final concentration of 400 pM corresponding to EC50-80. 2.5 μL of the diluted compound and 2.5 μL of PGE2 (400 pM final concentration) were transferred to the assay plate, and then the plate was incubated at room temperature for 12 minutes.
(§3) 5 μL of each donor (Eu-cAMP tracer) and acceptor (ULight-anti-cAMP) was added, and the plate was incubated in the dark for 1 hour at room temperature, and then a Varioskan LUX multimode microplate reader was used to obtain the results (excitation: 334 nm, emission: 615 and 665 nm). The resulting FRET fluorescence value (665 nm/615 nm*10000) was converted and then calculated as a percentage of cAMP relative to the DMSO control value. IC50 values and curves were generated with GraphPad Prism software using log (inhibitor) versus response-variable slopes (4 parameters), and the median of multiple experiments was taken as the experiment result.

hEP4 = target: T2, hEP4 (Homo sapiens, UniProt P35408); experiment: hEP4 cAMP assay; format: cell-based; conditions: HEK293 cells overexpressing hEP4; PGE2 agonist 20 nM; graded per Table 21; read-out: IC50 (nM) EP4 cAMP
T2 construct: expressed in transfected cells; host or cells: HEK293
Experimental: as §1, with “overexpressing hEP4” for “overexpressing hEP2”, “(HBSS (Gibco™” for “(HBSS (Gibco™,”, “hours.” for “hours. The”, “harboring hEP4” for “harboring hEP2”
as §2, with “plate (Corning®,” for “plate (Corning™,”, “solution: 100” for “solution: 1”, “of 20 nM” for “of 400 pM”, “PGE2 (20 nM” for “PGE2 (400 pM”, “for 18.5” for “for 12”
as §3, with “compared” for “relative”, “slope” for “slopes”

T2 sequence (P35408 whole entry): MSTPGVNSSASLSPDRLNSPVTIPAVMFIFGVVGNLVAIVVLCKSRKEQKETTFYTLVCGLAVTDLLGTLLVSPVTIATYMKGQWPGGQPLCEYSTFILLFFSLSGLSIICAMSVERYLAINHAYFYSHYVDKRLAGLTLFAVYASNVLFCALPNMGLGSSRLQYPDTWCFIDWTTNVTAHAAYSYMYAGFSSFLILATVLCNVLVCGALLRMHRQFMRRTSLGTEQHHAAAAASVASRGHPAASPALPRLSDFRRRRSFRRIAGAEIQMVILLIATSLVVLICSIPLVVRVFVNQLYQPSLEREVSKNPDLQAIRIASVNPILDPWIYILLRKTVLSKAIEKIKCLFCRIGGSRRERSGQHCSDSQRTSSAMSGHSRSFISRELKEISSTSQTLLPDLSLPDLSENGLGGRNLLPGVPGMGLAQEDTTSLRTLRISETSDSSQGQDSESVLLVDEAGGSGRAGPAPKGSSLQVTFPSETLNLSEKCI
T1 sequence (P43116 whole entry): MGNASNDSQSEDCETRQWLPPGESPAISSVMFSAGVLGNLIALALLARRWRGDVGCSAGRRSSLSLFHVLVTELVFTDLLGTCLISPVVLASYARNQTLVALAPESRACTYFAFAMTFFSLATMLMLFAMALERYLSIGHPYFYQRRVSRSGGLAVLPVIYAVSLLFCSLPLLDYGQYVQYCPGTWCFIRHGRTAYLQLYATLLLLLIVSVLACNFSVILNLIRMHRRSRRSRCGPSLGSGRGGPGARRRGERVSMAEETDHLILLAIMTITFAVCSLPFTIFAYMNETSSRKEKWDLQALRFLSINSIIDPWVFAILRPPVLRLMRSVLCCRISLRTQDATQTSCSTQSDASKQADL

| Compound | IC50 (hEP2) | IC50 (hEP4) |
| --- | --- | --- |
| [H][C@]1(C(=O)O)C[C@]2(C[C@H](NC(=O)c3c(C)sc(C)c3Cc3ccc(-c4cc(OC)cc(N5CCC5=O)c4)cc3)C2)C1 (stereo partly drawn) [Example 63, (2R,4R,6R)-6-(4-((3′-methoxy-5′-(2-oxoazetidin-1-yl)-[1,1′-biphenyl]-4-yl)methyl)-2,5-dimethylthiophene-3-carboxamido)spiro[3.3]heptane-2-carboxylic acid] | < 500 nM | < 500 nM |
| Cc1sc2ccn(CC#Cc3ccccc3)c2c1C(=O)NC1CC2(C1)CC(C(=O)O)C2 (stereo not shown) [Example 96, 6-(2-methyl-4-(3-phenylprop-2-yn-1-yl)-4H-thieno[3,2-b]pyrrole-3-carboxamido)spiro[3.3]heptane-2-carboxylic acid] | > 10000 nM | 500 to 5000 nM |
| O=C(NC1CC2(C1)CC(C(=O)O)C2)c1csc2ccn(Cc3cnc(-c4ccccc4)nc3)c12 (stereo not shown) [Example 94, 6-(4-((2-phenylpyrimidin-5-yl)methyl)-4H-thieno[3,2-b]pyrrole-3-carboxamido)spiro[3.3]heptane-2-carboxylic acid] | 500 to 5000 nM | < 500 nM |
| Cc1ccccc1-c1ccc(Cc2c(C)sc(C)c2C(=O)NC2CC3(C2)CC(C(=O)O)C3)cc1 (stereo not shown) [Example 38, 6-(2,5-dimethyl-4-((2′-methyl-[1,1′-biphenyl]-4-yl)methyl)thiophene-3-carboxamido)spiro[3.3]heptane-2-carboxylic acid] | > 10000 nM | 500 to 5000 nM |
| Cc1sc(C)c(C(=O)NC2CC3(C2)CC(C(=O)O)C3)c1Cc1ccc(-c2cccc(C#N)c2)cc1 (stereo not shown) [Example 30] | > 10000 nM | < 500 nM |
| Cc1sc(C)c(C(=O)N[C@H]2CC3(C2)C[C@H](C(=O)O)C3)c1Cc1ccc(-c2ccccc2)cc1 (single isomer, unassigned) [Example 1a] | > 10000 nM | > 10000 nM |
| O=C(N[C@H]1C[C@H](C(=O)O)C1)c1csc2ccn(Cc3ccc(-c4ccccc4)cc3)c12 [Example 83, (1R,3R)-3-(4-([1,1′-biphenyl]-4-ylmethyl)-4H-thieno[3,2-b]pyrrole-3-carboxamido)cyclobutane-1-carboxylic acid] | 500 to 5000 nM | > 10000 nM |
| Cc1sc(C)c(C(=O)NC2CC3(C2)CC(C(=O)O)C3)c1Cc1ccc(-c2ccc(F)c(C(=O)O)c2)cc1 (stereo not shown) [Example 37, 6-(4-((3′-carboxy-4′-fluoro-[1,1′-biphenyl]-4-yl)methyl)-2,5-dimethylthiophene-3-carboxamido)spiro[3.3]heptane-2-carboxylic acid] | > 10000 nM | 5000 to 10000 nM |
| Cc1sc(C)c(C(=O)NC2CC3(C2)CC(C(=O)O)C3)c1Oc1ccc(-c2ccccc2)cc1 (stereo not shown) [Example 74, 6-(4-([1,1′-biphenyl]-4-yloxy)-2,5-dimethylthiophene-3-carboxamido)spiro[3.3]heptane-2-carboxylic acid] | > 10000 nM | > 10000 nM |
| Cc1sc(C)c(C(=O)N(C)C2CC3(CC(C(=O)O)C3)C2)c1Cc1ccc(-c2ccccc2)cc1 (stereo not shown) [Example 73, 6-(4-([1,1′-biphenyl]-4-ylmethyl)-N,2,5-trimethylthiophene-3-carboxamido)spiro[3.3]heptane-2-carboxylic acid] | > 10000 nM | > 10000 nM |
| O=C(NC1CC2(C1)CC(C(=O)O)C2)c1csc2ccn(Cc3ccc(-c4ncccn4)cc3)c12 (stereo not shown) [Example 93, 6-(4-(4-(pyrimidin-2-yl)benzyl)-4H-thieno[3,2-b]pyrrole-3-carboxamido)spiro[3.3]heptane-2-carboxylic acid] | 5000 to 10000 nM | 500 to 5000 nM |
| COc1cc(F)cc(-c2ccc(Cn3ccc4scc(C(=O)NC5CC6(C5)CC(C(=O)O)C6)c43)nc2)c1 (stereo not shown) [Example 113, 6-(4-((5-(3-fluoro-5-methoxyphenyl)pyridin-2-yl)methyl)-4H-thieno[3,2-b]pyrrole-3-carboxamido)spiro[3.3]heptane-2-carboxylic acid] | 500 to 5000 nM | < 500 nM |
| COc1cccc(-c2ccc(Cc3c(C)sc(C)c3C(=O)NC3CC4(C3)CC(C(=O)O)C4)cc2)c1 (stereo not shown) [Example 29, 6-(4-((3′-methoxy-[1,1′-biphenyl]-4-yl)methyl)-2,5-dimethylthiophene-3-carboxamido)spiro[3.3]heptane-2-carboxylic acid] | 500 to 5000 nM | < 500 nM |
| O=C(NC1CC2(C1)CC(C(=O)O)C2)c1csc2ccn(Cc3ccc(-c4ccccc4)nc3)c12 (stereo not shown) [Example 105, 6-(4-((6-phenylpyridin-3-yl)methyl)-4H-thieno[3,2-b]pyrrole-3-carboxamido)spiro[3.3]heptane-2-carboxylic acid] | 500 to 5000 nM | < 500 nM |
| Cc1sc(C)c(C(=O)NC2CC3(C2)CC(C(=O)O)C3)c1CN1CCN(c2ccccc2)CC1 (stereo not shown) [Example 77, 6-(2,5-dimethyl-4-((4-phenylpiperazin-1-yl)methyl)thiophene-3-carboxamido)spiro[3.3]heptane-2-carboxylic acid] | > 10000 nM | > 10000 nM |
| COc1cc(F)cc(-c2ccc(Cn3ccc4scc(C(=O)NC5CC6(C5)CC(C(=O)O)C6)c43)cn2)c1 (stereo not shown) [Example 110, 6-(4-((6-(3-fluoro-5-methoxyphenyl)pyridin-3-yl)methyl)-4H-thieno[3,2-b]pyrrole-3-carboxamido)spiro[3.3]heptane-2-carboxylic acid] | < 500 nM | < 500 nM |
| O=C(NC1CC2(C1)CC(C(=O)O)C2)c1csc(C2CC2)c1Cc1ccc(-c2ccccc2)cc1 (stereo not shown) [Example 22] | 500 to 5000 nM | 500 to 5000 nM |
| COc1cc(-c2ccc(Cc3c(C)sc(C)c3C(=O)NC3CC4(C3)CC(C(=O)O)C4)cc2)cc(C(F)(F)F)c1 (stereo not shown) [Example 51, 6-(4-((3′-methoxy-5′-(trifluoromethyl)-[1,1′-biphenyl]-4-yl)methyl)-2,5-dimethylthiophene-3-carboxamido)spiro[3.3]heptane-2-carboxylic acid] | 500 to 5000 nM | < 500 nM |
| CSc1cc(F)cc(-c2ccc(Cc3c(C)sc(C)c3C(=O)NC3CC4(C3)CC(C(=O)O)C4)cc2)c1 (stereo not shown) [Example 55, 6-(4-((3′-fluoro-5′-(methylthio)-[1,1′-biphenyl]-4-yl)methyl)-2,5-dimethylthiophene-3-carboxamido)spiro[3.3]heptane-2-carboxylic acid] | 500 to 5000 nM | < 500 nM |
| Cc1sc(C)c(C(O)c2ccc(-c3ccccc3)cc2)c1C(=O)NC1CC2(C1)CC(C(=O)O)C2 (stereo not shown) [Example 11, 6-(4-([1,1′-biphenyl]-4-yl(hydroxy)methyl)-2,5-dimethylthiophene-3-carboxamido)spiro[3.3]heptane-2-carboxylic acid] | > 10000 nM | < 500 nM |
| COc1ccc(-c2ccc(Cc3c(C)sc(C)c3C(=O)NC3CC4(C3)CC(C(=O)O)C4)cc2)cc1F (stereo not shown) [Example 40, 6-(4-((3′-fluoro-4′-methoxy-[1,1′-biphenyl]-4-yl)methyl)-2,5-dimethylthiophene-3-carboxamido)spiro[3.3]heptane-2-carboxylic acid] | 5000 to 10000 nM | < 500 nM |
| COc1cccc(-c2ccc(Cn3ccc4scc(C(=O)NC5CC6(C5)CC(C(=O)O)C6)c43)cc2)n1 (stereo not shown) [Example 108, 6-(4-(4-(6-methoxypyridin-2-yl)benzyl)-4H-thieno[3,2-b]pyrrole-3-carboxamido)spiro[3.3]heptane-2-carboxylic acid] | 500 to 5000 nM | < 500 nM |
| Cc1sc(C)c(C(=O)N[C@H]2CC3(C2)C[C@H](C(=O)O)C3)c1Cc1ccc(-c2ccccc2)cc1 (single isomer, unassigned) [Example 1b] | 500 to 5000 nM | < 500 nM |
